# Source: patent publication US20140024653A1, “COMPOSITIONS AND METHODS FOR TREATING CANCER USING PI3K INHIBITOR AND MEK INHIBITOR” (priority 2011, published 2014)
# Entries after “also recorded” stand apart in the source; their conditions may differ.
# What was measured:
# A673 = experiment: SRB cell growth assay, 72 h; assay type: cell-based, human; conditions: single agent; for activity (cell growth inhibition): up to 50 μM
# [1] = system: human pancreatic MiaPaCa-2; experiment: antitumor activity against subcutaneous MiaPaCa-2 xenografts; assay type: in vivo, nude mice; conditions: 21 days
# Protocol: The human pancreatic cancer cell line MiaPaCa-2 (American Type Culture Collection, Manassas Va.), was cultured in MEM medium containing 10% fetal bovine serum, 1% essential amino acid, 1% sodium pyruvate (Life Technologies, Carlsbad, Calif.). […] Cells were re-suspended in PBS (Life Technologies, Carlsbad, Calif.) and then mixed 1:1 with Matrigel (BD Biosciences, San Jose, Calif.). Cells were stored at 4° C. until implantation. MiaPaCa-2 cells (10×10^6 in a 200 μl PBS:Matrigel (1:1) suspension) were subcutaneously injected into the right flank area of female nude (Crl:NU-Foxn1nu) mice (6-8 weeks old, Charles River Laboratories, Wilmington, Mass.). All mice in this study were used according to the guidelines approved by the EMD-Serono Institutional Care and Animal Use Committee (IACUC), #07-003. Developing tumors located in the right flank area of female nude mice were measured over time with digital calipers. […] The remaining tumor-bearing mice were randomized into seven experimental groups (n=9), so that each group had the same mean tumor volume. […] The treatments began on the seventh day following implantation of the Miapaca-2 cells, which was designated as Day 0 for data evaluation purposes. […] Body weights and tumor volumes were assessed twice per week post treatment initiation. […] Efficacy was determined by analyzing tumor volumes and the percent ΔT/ΔC (% ΔT/ΔC). Tumor volume was determined by using the tumor length (1) and width (w) measurements and calculating the volume with the equation 1*w^2/2. The length was measured along the longest axis of the tumor and width was measured perpendicular to that length. The mean percent of actual tumor growth inhibited by the treatments was calculated as follows: [% ΔT/ΔC=(([…]))×100%], where TV=tumor volume, f=final, i=initial and Ctrl=control group. Tolerability was assessed by regarding percent body weight difference during the treatment period. Percent body weight difference was calculated as follows: [% Body weight difference=(BWc-BWi)/BWi×100%], where BW=body weight, c=current, i=initial.
# [2] = system: human primary colon tumors CR-LRB-009C; experiment: antitumor activity against subcutaneous CR-LRB-009C xenografts; assay type: in vivo; conditions: for tolerability: as single agents or used in combination
# Protocol: The human primary colon carcinoma CR-LRB-009C tumor model was established by implanting (SC) small tumor fragments and was maintained in SCID female mice using serial passages.
# (§1) Treatments were administered on measurable tumors. […] Mice were checked daily, and adverse clinical reactions noted.
# (§2) Animal body weights included the tumor weight.
# (§3) The primary efficacy end points are ΔT/ΔC, percent median regression, partial and complete regressions (PR and CR). Statistical analyses were performed on SAS system release 8.2 for SUN4 via Everstat V5 software and SAS 9.2 software. A probability less than 5% (p<0.05) was considered as significant.
# MCF7 = experiment: SRB cell growth assay, 72 h; assay type: cell-based, human; conditions: for GI50: Homo sapiens
# DLD1 = experiment: SRB cell growth assay, 72 h; assay type: cell-based, human; conditions: single agent
# CLS439 = experiment: SRB cell growth assay, 72 h; assay type: cell-based; conditions: Homo sapiens, highest tested concentration 50 μM, read-out: activity (estimated)
# Protocol: (§4) Cell growth and treatment were performed in 96-well microtitre plates CELLSTAR® (Greiner Bio-One, Germany). Cells harvested from exponential phase cultures by trypsinization were plated in 150 μl of media at optimal seeding densities. The optimal seeding densities for each cell line were determined to ensure exponential growth for the duration of the experiment. All cells growing without anticancer agents were sub-confluent by the end of the treatment as determined by visual inspection.
# (§5) 150 μl of cells, after a 24-hour pre-growth period, were treated by mixing with 50 μl of the compound containing media (resulting in a final DMSO concentration of 0.1%). The cells were allowed to grow at 37° C. for 72 hours. In addition, all experiments contained a few plates with cells that were processed for measurement immediately after the 24 hours recovery period. These plates contained information about the cell number that existed before treatment, at time zero, and served to calculate the cytotoxicity.
# (§6) After treatment, cells were precipitated by addition of 10% TCA. Prior to fixation, the media was aspirated as described. After an hour of incubation at 4° C., the plates were washed two times with 400 μl of deionized water. Cells were then stained with 100 μl of a 0.08% wt/v SRB. The plates were allowed to sit for at least 30 min. and washed six times with 1% acetic acid to remove unbound stain. The plates were left to dry at room temperature and bound SRB was solubilized with 100 μl of 10 mM Tris base. Measurement of optical density was performed at 560 nm on a Victor 2 plate reader (Perkin Elmer, Germany). The SRB values for A375 and H460 cell lines were near to saturation (2.5 OD units) due to the high protein content of these cells, but not cell confluence. The measurements for these cells were performed at 520 nm instead of 560 nm.
# (§7) Using these measurements, cellular responses can be calculated for incomplete inhibition of cell growth (GI), complete inhibition of cell growth (T GI) and net loss of cells (LC) due to compound activity. […] This is the drug concentration causing a 50% reduction compared to the net protein increase in control cells during the drug incubation period. In other words, GI50 is IC50 corrected for time zero. Similar to IC90, calculated GI90 values are also reported for all compounds tested. TGI was calculated from Ti=Tz. […] It was calculated as 100×[(Ti−Tz)/Tz]=−50. However, due to 72 hours treatment, low cell seeding density was required and LC50 could rarely be achieved.
# SAOS2 = experiment: SRB cell growth assay, 72 h; assay type: cell-based; conditions: Homo sapiens, SAOS-2, highest tested concentration 50 μM, read-out: activity (estimated)
# Protocol: as §4, §5, §6, §7
# [3] = system: human primary colon tumors CR-LRB-013P; experiment: antitumor activity against subcutaneous CR-LRB-013P xenografts; assay type: in vivo; conditions: for tolerability: as single agents or used in combination
# Protocol: The human primary colon carcinoma CR-LRB-013P tumor model was established by implanting (SC) small tumor fragments and was maintained in SCID female mice using serial passages.
# as §1, §2, §3
# [4] = chemical stability of dosing stock solution; assay type: physicochemical; conditions: in 1N HCl and water for injection, pH 3; in the dark at 4° C.
# Protocol: Compound (2a) formulation was prepared in water for injection. The stock solution was chemically stable 7 days in the dark at 4° C. […] The pH of the final solution was 3. […]
# [5] = (1) 20 mg/kg PO daily days 11-21
# [6] = (1) 20 mg/kg PO daily days 33-50
# [7] = (2b) 20 mg/kg PO daily days 11-21
# [8] = (2b) 20 mg/kg PO daily days 33-50
smiles,measurement,setting,value
"O=C(NC[C@H](O)CO)c1ccncc1Nc1ccc(I)cc1F [Compound (1), N—((S)-2,3-dihydroxypropyl)-3-(2-fluoro-4-iodo-phenylamino)isonicotinamide]",z-score MSC6369,A673,3.00
same,activity (cell growth inhibition),A673,minimal activity; also recorded: non-sensitive
same,% ΔT/ΔC,"[1]; AS703026 5 mg/kg po QD, 5 mg/kg",56.2%
same,Average body weight change in % per mouse at nadir,[2]; [5],−7.7 (20) %
same,Drug death,[2]; [5],0/7
same,Regressions Complete,[2]; [5],0/7
same,Regressions Partial,[2]; [5],0/7
same,Median ΔT/ΔC in % day 21,"[2]; (1) 20 mg/kg PO daily days 11-21, 20 mg/kg",53%
same,tolerability,[2],"tolerated, inducing some BWL but not reaching toxicity"
same,GI50,MCF7,150 nM
same,z-score MSC6369,MCF7; single agent,−0.33
same,z-score MSC6369,DLD1,0.19
same,IC50,CLS439,> 50000 nM
same,IC50,SAOS2,> 50000 nM
same,Average body weight change in % per mouse at nadir,[3]; [6],−4.5 (50) %
same,Drug death,[3]; [6],0/7
same,Median ΔT/ΔC in % day 50,[3]; [6],30%
same,Regressions Complete,[3]; [6],0/7
same,Regressions Partial,[3]; [6],0/7
same,tolerability,[3],"tolerated, inducing some BWL but not reaching toxicity"
"CCn1c(=O)c(-c2ccn[nH]2)cc2c(C)nc(N)nc21 [Compound (2b), 2-amino-8-ethyl-4-methyl-6-(1H-pyrazol-5-yl)pyrido[2,3-d]pyrimidin-7(8H)-one]",z-score MSC0765,A673,0.96
same,activity (cell growth inhibition),A673,non-sensitive
same,% ΔT/ΔC,"[1]; XL-765 30 mg/kg po QD, 30 mg/kg",77.0%
same,stock solution chemically stable,[4],7 days
same,Average body weight change in % per mouse at nadir,[2]; [7],−7.4 (19) %
same,Drug death,[2]; [7],0/7
same,Median ΔT/ΔC in % day 21,[2]; [7],51%
same,Regressions Complete,[2]; [7],0/7
same,Regressions Partial,[2]; [7],0/7
same,tolerability,[2],"tolerated, inducing some BWL but not reaching toxicity"
same,GI50,MCF7,1600 nM
same,z-score MSC0765,MCF7; single agent,0.30
same,z-score MSC0765,DLD1,0.81
same,Average body weight change in % per mouse at nadir,[3]; [8],−5.2 (50) %
same,Drug death,[3]; [8],0/7
same,Regressions Complete,[3]; [8],0/7
same,Regressions Partial,[3]; [8],0/7
same,tolerability,[3],"tolerated, inducing some BWL but not reaching toxicity"
